In patent US12465594B2 (Brown University, priority 2018, dated 2025):
Entries after “also recorded” stand apart in the source; their conditions may differ.

Key:
5-HT1E = molecular target: T1, 5-HT1E (Homo sapiens, UniProt P28566); experiment: PDSP binding assay; conditions: 10 μM, quadruplicate, cloned target
T1 construct: NIMH Psychoactive Drug Screening Program (PDSP)

MOR = MOR (Homo sapiens, UniProt P35372); experiment: PDSP binding assay; conditions: 10 μM, quadruplicate, cloned target
CRFBP-CRF2 complex = molecular target: T2, CRFBP-CRF2 complex (Homo sapiens, UniProt P24387+Q13324); experiment: CRFBP-CRF2 Ca2+ assay (FDSS7000; dose-response, Schild analysis); type: cell-based; conditions: for CRF maximal response with increasing concentrations of compound / Mechanism of antagonism relative to CRF (Schild analysis): 1.11, 3.33, 10 μM compound; for Antagonism of the CRFBP-CRF2 response: dose-response in presence of EC80 CRF
T2 construct: FLAG (N); HA (N); expressed in transfected cells
T2 sequence (P24387+Q13324 with tags, fused parts or gaps): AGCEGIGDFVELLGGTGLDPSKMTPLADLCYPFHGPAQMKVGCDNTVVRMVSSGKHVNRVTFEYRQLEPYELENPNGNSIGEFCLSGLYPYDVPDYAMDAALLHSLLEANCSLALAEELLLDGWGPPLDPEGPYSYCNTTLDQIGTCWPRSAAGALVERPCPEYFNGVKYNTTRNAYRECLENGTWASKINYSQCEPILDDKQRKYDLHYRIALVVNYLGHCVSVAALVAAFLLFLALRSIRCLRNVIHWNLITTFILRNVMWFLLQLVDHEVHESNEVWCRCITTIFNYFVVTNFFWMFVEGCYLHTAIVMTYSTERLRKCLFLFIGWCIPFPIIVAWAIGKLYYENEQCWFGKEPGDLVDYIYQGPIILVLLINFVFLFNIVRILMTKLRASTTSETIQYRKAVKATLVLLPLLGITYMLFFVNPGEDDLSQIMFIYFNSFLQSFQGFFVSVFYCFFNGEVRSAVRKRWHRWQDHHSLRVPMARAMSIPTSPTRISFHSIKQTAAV
Protocol: CRFBP-CRF2 HEK293 cells (1,000 cells/6 μL per well) were plated in 1536-well black walled clear-bottom Poly-D-Lysine coated plates (Corning) in Assay Media (Dulbecco's Modified Eagle Medium (DMEM) (1×), phenol red free, 1% Defined Fetal Bovine Serum (FBS) (Hyclone), 1×Penicillin/Streptomycin (P/S), and 1×L-Glutamine) using a Multidrop Combi (Thermo). Cell plates were spun at 500 rpm for 1 minute in a centrifuge, covered with Kalypsys lids, and incubated overnight at 37° C. in the presence of 5% CO2. The following day, 2 μL per well of FLIPR Calcium 4 Dye (Molecular Devices), prepared in Assay Buffer (1×Hanks' balanced salt solution, 20 mM HEPES, 0.1% Bovine Serum Albumin [Sigma], and 2.5 mM probenecid [Sigma], pH 7.4) was added to each well of the assay plate at 0.5×according to the Manufacturer's Instructions using the Multidrop Combi (Thermo) dispenser and the cells were incubated in dye for 1 hour 37° C. in the presence of 5% CO2. Reagents are from Invitrogen unless otherwise stated.
Calcium flux was measured using a Functional Drug Screening System 7000 (FDSS7000; Hamamatsu, Tokyo, Japan). Baseline readings were taken (9 images at 1 Hz; excitation, 470±20 nm; emission, 540±30 nm), and then test compounds (approximately 53 nL) were added at the 10 second time-point using the FDSS's integrated 1536 well pin-tool from source library plates (Corning) containing 2 mM test compound stocks in 100% DMSO. […] Agonist “Hits” were selected by comparing the amplitude of the responses at the time of test compound addition to the CRF maximal response on each plate.
For confirmation screening, the CRFBP-CRF2 Ca^2+ assay was performed in the identical as the primary screen with the following exceptions. For each test compound, eight assay plates were prepared, each of which received a different concentration of test compound by pin-tool in the FDSS7000 Ca^2+ assay. For the agonist confirmation screening, compounds were tested at 53.0 μM, 26.5 μM, 13.3 μM, 6.63 μM, 3.31 μM, 1.66 μM, 0.828 μM, and 0.414 μM. For the antagonist confirmation screening, compounds were tested at 47.1 μM, 23.6 μM, 11.8 μM, 5.89 μM, 2.94 μM, 1.47 μM, 0.736 μM, and 0.368 μM.

SERT = SERT (Homo sapiens, UniProt P31645); experiment: PDSP binding assay; conditions: 10 μM, quadruplicate, cloned target
Beta2 = Beta2 (Homo sapiens, UniProt P07550); experiment: PDSP binding assay; conditions: 10 μM, quadruplicate, cloned target
Chain of Beta2 (P07550 whole entry): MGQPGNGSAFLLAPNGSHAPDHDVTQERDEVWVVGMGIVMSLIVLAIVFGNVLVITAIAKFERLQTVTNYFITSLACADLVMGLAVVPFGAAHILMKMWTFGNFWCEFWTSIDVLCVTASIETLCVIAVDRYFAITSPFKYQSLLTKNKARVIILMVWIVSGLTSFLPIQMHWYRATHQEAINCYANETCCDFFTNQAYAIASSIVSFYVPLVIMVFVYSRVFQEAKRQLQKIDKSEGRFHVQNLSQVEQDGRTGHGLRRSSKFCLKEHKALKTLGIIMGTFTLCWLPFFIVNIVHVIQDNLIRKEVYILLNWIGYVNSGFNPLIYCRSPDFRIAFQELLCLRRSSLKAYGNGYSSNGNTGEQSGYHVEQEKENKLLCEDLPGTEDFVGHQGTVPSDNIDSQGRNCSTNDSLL

5-HT2C = molecular target: T3, 5-HT2C (Homo sapiens, UniProt P28335); experiment: PDSP binding assay; conditions: 10 μM, quadruplicate, cloned target
T3 construct: NIMH Psychoactive Drug Screening Program (PDSP)
T3 sequence (P28335 33-458, species assumed): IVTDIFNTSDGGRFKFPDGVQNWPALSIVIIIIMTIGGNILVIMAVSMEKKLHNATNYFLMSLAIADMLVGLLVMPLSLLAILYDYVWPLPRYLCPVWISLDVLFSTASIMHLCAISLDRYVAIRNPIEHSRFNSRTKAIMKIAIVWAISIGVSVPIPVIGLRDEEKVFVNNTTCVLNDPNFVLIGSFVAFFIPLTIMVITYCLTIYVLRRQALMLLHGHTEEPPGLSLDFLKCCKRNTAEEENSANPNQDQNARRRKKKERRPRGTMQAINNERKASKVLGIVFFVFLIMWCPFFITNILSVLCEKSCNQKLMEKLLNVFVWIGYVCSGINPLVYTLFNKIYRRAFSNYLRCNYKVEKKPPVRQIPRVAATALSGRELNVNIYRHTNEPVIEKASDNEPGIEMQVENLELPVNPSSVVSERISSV

[1] = Brain homogenate binding (equilibrium dialysis); type: in vitro ADME; conditions: rat brain homogenate
Excerpt: (§1) Both compounds were then profiled for their plasma protein binding (PPB) and brain homogenate binding (BHB) to predict the unbound drug fraction in the plasma and brain respectively.

D1 = molecular target: T4, D1 (Homo sapiens, UniProt P21728); experiment: PDSP binding assay; conditions: 10 μM, quadruplicate, cloned target
T4 construct: NIMH Psychoactive Drug Screening Program (PDSP)

M4 = M4 (Homo sapiens, UniProt P08173); experiment: PDSP binding assay; conditions: 10 μM, quadruplicate, cloned target
D5 = D5 (Homo sapiens, UniProt P21918); experiment: PDSP binding assay; conditions: 10 μM, quadruplicate, cloned target
Chain of D5 (P21918 whole entry): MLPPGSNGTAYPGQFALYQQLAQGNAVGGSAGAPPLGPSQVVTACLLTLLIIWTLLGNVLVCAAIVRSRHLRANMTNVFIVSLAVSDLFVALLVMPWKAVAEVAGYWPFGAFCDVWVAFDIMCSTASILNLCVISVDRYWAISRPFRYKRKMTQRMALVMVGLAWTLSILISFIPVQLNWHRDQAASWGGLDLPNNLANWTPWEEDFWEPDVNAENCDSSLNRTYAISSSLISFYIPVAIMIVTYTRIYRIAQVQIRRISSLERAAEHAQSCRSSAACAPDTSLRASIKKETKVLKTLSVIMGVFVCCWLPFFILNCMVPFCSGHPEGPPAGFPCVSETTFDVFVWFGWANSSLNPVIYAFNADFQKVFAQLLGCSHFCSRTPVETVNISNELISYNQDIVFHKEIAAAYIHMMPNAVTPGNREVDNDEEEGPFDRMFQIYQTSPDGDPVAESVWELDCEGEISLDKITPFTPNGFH

H3 = H3 (Homo sapiens, UniProt Q9Y5N1); experiment: PDSP binding assay; conditions: 10 μM, quadruplicate, cloned target
Chain of H3 (Q9Y5N1 whole entry): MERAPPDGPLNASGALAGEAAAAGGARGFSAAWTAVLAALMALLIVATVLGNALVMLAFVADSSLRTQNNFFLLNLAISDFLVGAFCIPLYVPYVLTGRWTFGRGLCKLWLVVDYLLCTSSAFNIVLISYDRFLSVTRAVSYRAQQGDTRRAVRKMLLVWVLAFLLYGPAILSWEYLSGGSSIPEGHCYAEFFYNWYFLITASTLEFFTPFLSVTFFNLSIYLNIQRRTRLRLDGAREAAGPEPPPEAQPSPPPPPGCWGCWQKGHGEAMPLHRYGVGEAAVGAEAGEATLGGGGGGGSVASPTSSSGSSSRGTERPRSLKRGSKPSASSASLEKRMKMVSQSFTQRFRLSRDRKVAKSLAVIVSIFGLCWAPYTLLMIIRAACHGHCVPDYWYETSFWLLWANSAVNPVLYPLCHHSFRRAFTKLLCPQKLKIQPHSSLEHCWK

D2 = molecular target: T5, D2 (Homo sapiens, UniProt P14416); experiment: PDSP binding assay; conditions: 10 μM, quadruplicate, cloned target
T5 construct: NIMH Psychoactive Drug Screening Program (PDSP)
T5 sequence (P14416 whole entry): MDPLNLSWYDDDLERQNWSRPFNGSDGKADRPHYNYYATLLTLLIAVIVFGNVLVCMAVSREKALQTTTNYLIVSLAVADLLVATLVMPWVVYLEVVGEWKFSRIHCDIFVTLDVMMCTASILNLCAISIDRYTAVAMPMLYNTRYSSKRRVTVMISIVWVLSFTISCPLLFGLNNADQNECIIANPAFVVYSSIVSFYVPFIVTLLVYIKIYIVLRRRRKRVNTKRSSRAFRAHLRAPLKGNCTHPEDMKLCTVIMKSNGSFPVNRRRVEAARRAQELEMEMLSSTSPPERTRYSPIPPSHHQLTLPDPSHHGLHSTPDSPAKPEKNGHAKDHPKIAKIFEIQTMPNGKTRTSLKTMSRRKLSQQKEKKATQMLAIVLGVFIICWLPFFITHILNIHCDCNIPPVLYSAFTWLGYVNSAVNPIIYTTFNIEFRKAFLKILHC

CYP2D6 = CYP2D6 (Homo sapiens, UniProt P10635); experiment: in vitro; conditions: microsomes
Chain of CYP2D6 (P10635 whole entry): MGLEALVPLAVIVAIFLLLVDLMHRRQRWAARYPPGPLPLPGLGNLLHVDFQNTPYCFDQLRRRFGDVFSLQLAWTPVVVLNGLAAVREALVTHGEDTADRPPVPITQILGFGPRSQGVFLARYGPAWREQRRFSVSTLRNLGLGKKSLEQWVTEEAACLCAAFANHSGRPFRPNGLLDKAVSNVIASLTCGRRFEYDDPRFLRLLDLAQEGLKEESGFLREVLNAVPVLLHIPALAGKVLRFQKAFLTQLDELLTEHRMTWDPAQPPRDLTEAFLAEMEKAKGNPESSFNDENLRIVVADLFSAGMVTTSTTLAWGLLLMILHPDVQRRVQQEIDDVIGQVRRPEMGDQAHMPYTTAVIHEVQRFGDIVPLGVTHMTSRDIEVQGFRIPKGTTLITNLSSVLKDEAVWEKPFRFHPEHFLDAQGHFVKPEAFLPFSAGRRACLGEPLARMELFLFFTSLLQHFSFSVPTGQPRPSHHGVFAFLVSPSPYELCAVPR

M2 = M2 (Homo sapiens, UniProt P08172); experiment: PDSP binding assay; conditions: 10 μM, quadruplicate, cloned target
Chain of M2 (P08172 whole entry): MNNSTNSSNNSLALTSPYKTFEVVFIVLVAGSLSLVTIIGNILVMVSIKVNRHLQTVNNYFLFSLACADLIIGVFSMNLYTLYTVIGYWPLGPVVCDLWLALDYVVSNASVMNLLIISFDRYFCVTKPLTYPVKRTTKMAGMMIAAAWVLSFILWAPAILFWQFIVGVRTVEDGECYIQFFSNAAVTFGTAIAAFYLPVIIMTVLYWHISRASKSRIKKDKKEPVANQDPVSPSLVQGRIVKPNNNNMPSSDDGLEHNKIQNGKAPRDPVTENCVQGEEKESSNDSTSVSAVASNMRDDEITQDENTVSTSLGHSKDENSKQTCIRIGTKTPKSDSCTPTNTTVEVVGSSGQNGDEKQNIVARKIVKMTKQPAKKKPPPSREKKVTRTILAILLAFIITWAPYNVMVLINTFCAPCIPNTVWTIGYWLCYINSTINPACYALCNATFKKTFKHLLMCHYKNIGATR

5-HT6 = molecular target: T6, 5-HT6 (Homo sapiens, UniProt P50406); experiment: PDSP binding assay; conditions: 10 μM, quadruplicate, cloned target
T6 construct: NIMH Psychoactive Drug Screening Program (PDSP)

[2] = Plasma protein binding (equilibrium dialysis); type: in vitro ADME; conditions: rat plasma
Excerpt: as §1

Alpha2C = Alpha2C (Homo sapiens, UniProt P18825); experiment: PDSP binding assay; conditions: 10 μM, quadruplicate, cloned target
Chain of Alpha2C (P18825 whole entry): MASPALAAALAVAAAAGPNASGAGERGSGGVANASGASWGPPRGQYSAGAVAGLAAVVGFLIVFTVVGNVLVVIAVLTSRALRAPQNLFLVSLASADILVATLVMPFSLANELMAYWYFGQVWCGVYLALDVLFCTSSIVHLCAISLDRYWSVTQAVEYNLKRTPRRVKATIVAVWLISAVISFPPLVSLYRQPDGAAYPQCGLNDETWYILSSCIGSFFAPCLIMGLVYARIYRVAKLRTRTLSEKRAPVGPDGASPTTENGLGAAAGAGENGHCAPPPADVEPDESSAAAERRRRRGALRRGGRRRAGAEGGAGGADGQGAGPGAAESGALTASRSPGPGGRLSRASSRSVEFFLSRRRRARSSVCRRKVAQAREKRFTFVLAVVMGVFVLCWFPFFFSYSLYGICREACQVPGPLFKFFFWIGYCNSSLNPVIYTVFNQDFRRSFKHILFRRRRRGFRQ

[3] = In vivo pharmacokinetic study, plasma and brain exposure; conditions: mouse, 10 mg/kg i.p.
D3 = D3 (Homo sapiens, UniProt P35462); experiment: PDSP binding assay; conditions: 10 μM, quadruplicate, cloned target
Chain of D3 (P35462 whole entry): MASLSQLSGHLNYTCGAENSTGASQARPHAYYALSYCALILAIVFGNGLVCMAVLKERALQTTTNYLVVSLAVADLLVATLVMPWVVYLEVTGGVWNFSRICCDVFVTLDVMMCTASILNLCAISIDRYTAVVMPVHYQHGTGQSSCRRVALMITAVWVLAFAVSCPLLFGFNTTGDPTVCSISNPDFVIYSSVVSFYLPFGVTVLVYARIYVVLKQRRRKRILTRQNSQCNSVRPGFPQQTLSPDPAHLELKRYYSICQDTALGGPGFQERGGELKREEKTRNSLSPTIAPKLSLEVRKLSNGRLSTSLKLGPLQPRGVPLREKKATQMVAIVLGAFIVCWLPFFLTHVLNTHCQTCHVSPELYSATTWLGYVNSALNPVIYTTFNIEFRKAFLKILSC

5-HT1D = molecular target: T7, 5-HT1D (Homo sapiens, UniProt P28221); experiment: PDSP binding assay; conditions: 10 μM, quadruplicate, cloned target
T7 construct: NIMH Psychoactive Drug Screening Program (PDSP)
T7 sequence (P28221 whole entry, species assumed): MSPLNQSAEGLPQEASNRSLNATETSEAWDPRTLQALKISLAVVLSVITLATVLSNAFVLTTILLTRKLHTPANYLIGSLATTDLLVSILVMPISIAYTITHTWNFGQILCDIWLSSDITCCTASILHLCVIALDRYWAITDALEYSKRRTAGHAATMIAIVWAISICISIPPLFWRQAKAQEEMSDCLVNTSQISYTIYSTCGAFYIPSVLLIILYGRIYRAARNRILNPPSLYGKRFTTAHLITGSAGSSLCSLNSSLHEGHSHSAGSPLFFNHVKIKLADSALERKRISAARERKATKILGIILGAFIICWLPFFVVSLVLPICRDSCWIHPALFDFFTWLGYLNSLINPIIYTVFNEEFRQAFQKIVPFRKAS

T1 sequence (P28566 whole entry, species assumed): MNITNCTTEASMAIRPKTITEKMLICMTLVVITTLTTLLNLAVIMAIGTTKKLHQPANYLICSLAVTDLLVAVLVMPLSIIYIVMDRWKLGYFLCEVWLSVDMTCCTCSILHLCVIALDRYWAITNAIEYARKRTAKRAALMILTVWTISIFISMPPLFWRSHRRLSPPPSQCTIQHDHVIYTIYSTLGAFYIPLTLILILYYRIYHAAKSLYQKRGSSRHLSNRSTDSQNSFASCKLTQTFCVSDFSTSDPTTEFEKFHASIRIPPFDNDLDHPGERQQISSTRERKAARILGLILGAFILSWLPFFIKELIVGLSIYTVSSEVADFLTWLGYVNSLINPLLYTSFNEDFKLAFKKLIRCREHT

| Compound | Activity at 5-HT1E (binding assay) (5-HT1E) | Activity at MOR (binding assay) (MOR) | CRF maximal response with increasing concentrations of compound (CRFBP-CRF2 complex) | Mechanism of antagonism relative to CRF (Schild analysis) (CRFBP-CRF2 complex) | Antagonism of the CRFBP-CRF2 response (CRFBP-CRF2 complex) | Activity at SERT (binding assay) (SERT) | Activity at Beta2 (binding assay) (Beta2) | Activity at 5-HT2C (binding assay) (5-HT2C) | Brain homogenate binding, free [1] | Activity at D1 (binding assay) (D1) | Activity at M4 (binding assay) (M4) | Activity at D5 (binding assay) (D5) | Activity at H3 (binding assay) (H3) | Activity at D2 (binding assay) (D2) | inhibition at 10 µM (CYP2D6) | Activity at M2 (binding assay) (M2) | Activity at 5-HT6 (binding assay) (5-HT6) | Plasma protein binding, free [2] | Activity at Alpha2C (binding assay) (Alpha2C) | Brain exposure ([3]; 4 hour post-dose) | other results |
| --- | --- | --- | --- | --- | --- | --- | --- | --- | --- | --- | --- | --- | --- | --- | --- | --- | --- | --- | --- | --- | --- |
| Brc1ccccc1-c1nnc(CSc2nnnn2-c2ccccc2)o1 [MLS-0046818] | 16% | 12% | decreased | noncompetitively antagonize CRF responses | only inhibit the CRFBP-CRF2 response | −14% | 1% | 19% | 2.3 % free | −1% | −12% | 12% | −15% | −13% | -128% | 10% | 35% | 4.6 % free | 8% | 56 nM | Mechanism of antagonism relative to CRF (Schild analysis) (CRFBP-CRF2 complex; listed as MLS-0046181): noncompetitive interaction; Brain exposure relative to IC50 ([3]; 4 hour post-dose): 0.10 ×IC50; Brain exposure relative to IC50 ([3]; 6 hour post-dose): 0.14 ×IC50; Brain exposure ([3]; 24 hour post-dose): 40 nM; Brain exposure relative to IC50 ([3]; 24 hour post-dose): 0.07 ×IC50; Plasma Cmax exposure relative to in vitro IC50 [3]: 4.8 ×; Activity at D3 (binding assay) (D3): −11%; Activity at 5-HT1D (binding assay) (5-HT1D): −5% |
| CC(C)Cn1c(SCC(=O)N2CCc3ccccc3C2)nc2cc(Cl)ccc2c1=O [MLS-0219419] | 11% | −4% | decreased | noncompetitive interaction; also recorded: noncompetitively antagonize CRF responses | only inhibit the CRFBP-CRF2 response | −14% | −13% | −7% | 0.0 % free | 1% | −6% | −15% | −9% | −5% | -21% | 23% | 2% | 0.1 % free | −5% | 245 nM | Brain exposure relative to IC50 ([3]; 4 hour post-dose): 0.52 ×IC50; Brain exposure ([3]; 24 hour post-dose): 78 nM; Brain exposure relative to IC50 ([3]; 24 hour post-dose): 0.17 ×IC50; Plasma Cmax exposure relative to in vitro IC50 [3]: 1.7 ×; Activity at D3 (binding assay) (D3): −6%; Activity at 5-HT1D (binding assay) (5-HT1D): −5% |
